Test results: paper PMC7999182, “Interaction of Remdesivir with Clinically Relevant Hepatic Drug Uptake Transporters” (Pharmaceutics, 2021)
pIC50: −log10 of the molar value.

Columns and labels:
[1] = target: T1, OATP1B1*1b (Homo sapiens, UniProt Q9Y6L6, N130D); test: Remdesivir uptake into HEK cells stably expressing OATP1B1*1b vs vector control; assay type: in vitro ADME; conditions: 10 min
T1 construct: expressed in transfected cells
T1 sequence (Q9Y6L6 1-691 N130D): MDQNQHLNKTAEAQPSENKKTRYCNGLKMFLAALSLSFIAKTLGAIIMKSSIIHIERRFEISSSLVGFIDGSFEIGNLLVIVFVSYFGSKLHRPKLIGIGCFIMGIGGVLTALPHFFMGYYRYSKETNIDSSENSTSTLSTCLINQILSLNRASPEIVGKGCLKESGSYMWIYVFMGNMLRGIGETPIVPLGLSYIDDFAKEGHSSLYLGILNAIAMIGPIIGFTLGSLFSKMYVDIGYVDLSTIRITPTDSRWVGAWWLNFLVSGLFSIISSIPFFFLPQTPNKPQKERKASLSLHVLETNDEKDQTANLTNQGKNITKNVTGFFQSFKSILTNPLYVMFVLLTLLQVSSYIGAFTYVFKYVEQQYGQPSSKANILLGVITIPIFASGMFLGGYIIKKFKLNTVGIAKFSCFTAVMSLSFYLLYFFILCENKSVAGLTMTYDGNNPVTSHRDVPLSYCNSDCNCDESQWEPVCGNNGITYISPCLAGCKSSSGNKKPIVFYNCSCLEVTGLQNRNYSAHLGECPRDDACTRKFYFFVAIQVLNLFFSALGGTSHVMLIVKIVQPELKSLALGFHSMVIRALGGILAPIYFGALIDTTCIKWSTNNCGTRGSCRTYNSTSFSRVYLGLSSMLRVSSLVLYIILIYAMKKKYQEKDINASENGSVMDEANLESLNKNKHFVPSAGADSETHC
Source text: Generation, cultivation and characterization of human embryonic kidney (HEK) cells stably expressing OATP1B1 refseq (=OATP1B1*1a), OATP1B1*1b, OATP1B1*5 and OATP1B1*15 [18], OATP1B3 [19], OATP2B1 [13] and OCT1 [20] have been described previously. OATP1B1 cells were cultivated in minimal essential medium (Life Technologies, Paisley, UK) and OATP1B3, OATP2B1 and OCT1 cells were cultivated in Dulbecco’s modified Eagle medium (Sigma, Darmstadt, Germany). Cultivation media were supplemented with 10% fetal calf serum, 100 U/mL penicillin and 100 µg/mL streptomycin. Cells were grown at 37 °C and 5% CO2. Functionality of the cells was confirmed by measuring uptake of prototypic substrates (see Section 2.3 and supplementary material).
Uptake assays were conducted at 37 °C according to previously described methods. For this, cells were seeded in 24-well plates (320,000 cells/well) and cultured for 2 days. Cells were then incubated for a further 24 h in culture medium with 5 mM butyrate (OATP1B3, OATP2B1, OCT1) or 10 mM butyrate (OATP1B1) to increase protein levels of recombinant transporters. […]
Remdesivir was determined by UHPLC-MS-MS analysis on an Agilent 1290 infinity UHPLC system coupled to an Agilent 6495B triple quadrupole mass spectrometer (Agilent, Waldbronn, Germany) similar to a recently published method. […]

[2] = tested on: OATP2B1; design: method as in PMID 33435273; conditions: pyranine transport; cited from earlier work

## CCC(CC)COC(=O)[C@H](C)N[P@](=O)(OC[C@H]1O[C@@](C#N)(c2ccc3c(N)ncnn23)[C@H](O)[C@@H]1O)Oc1ccccc1 [Remdesivir]
[1]; 5 µM remdesivir
  Accumulation vs vector-transfected control cells: moderately higher
[1]; 50 µM remdesivir
  Accumulation vs vector-transfected control cells: moderately higher
[2]
  pIC50: 5.42
